Measurements published in PubChem BioAssay AID2060625 (Molecular Pharmacology Branch, DTP, NCI, 2025).

System: 186277-243-T-J2-PDC spheroids with HUVEC/MSC, viability
Test: Anticancer human tumor 186277-243-T-J2-PDC patient-derived colon adenocarcinoma cell line growth inhibition [CLK]
Details: for IC50: curve of first compound; for viability, T/C: stronger effect = lower value
Procedure, shortened: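 Patient-derived tumor cells grown as complex spheroids with HUVEC endothelial cells and mesenchymal stem cells, treated with drug combinations. Concentrations descend in half-log steps from near clinical Cmax, or from 10 microM if Cmax unknown.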

[1] = second compound 0.0316 µM, first compound 0.0316 µM
[2] = second compound 0.0316 µM, first compound 0.1 µM
[3] = second compound 0.1 µM, first compound 0.0316 µM
[4] = second compound 0.1 µM, first compound 0.1 µM
[5] = second compound 0.316 µM, first compound 0.0316 µM
[6] = second compound 0.316 µM, first compound 0.1 µM
[7] = second compound 1 µM, first compound 0.0316 µM
[8] = second compound 1 µM, first compound 0.1 µM
[9] = second compound 3.16 µM, first compound 0.0316 µM
[10] = second compound 3.16 µM, first compound 0.1 µM
[11] = second compound 10 µM, first compound 0.0316 µM
[12] = second compound 10 µM, first compound 0.1 µM
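Note: compound exposure lasted seven days before readout.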
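Throughout, for viability, T/C: 100% = DMSO vehicle control wells.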

`CC(C)CC(NC(=O)C(Cc1ccccc1)NC(=O)c1cnccn1)B(O)O` (stereo unspecified) + CNC(=O)c1ccc(Nc2nc(OC3CCCC3)c3c(-c4ccc5nc(C)oc5c4)c[nH]c3n2)c(OC)c1 was tested, and the IC50 (second compound 0.0316 µM) was 3.74 nM, the IC50 (second compound 0.1 µM) was 1.79 nM and the IC50 (second compound 0.316 µM) was 1.03 nM. For the same compound, the IC50 (second compound 1 µM) was less than 0.949 nM, the IC50 (second compound 3.16 µM) was less than 0.949 nM and the IC50 (second compound 10 µM) was less than 0.949 nM. It also gave a viability, T/C (second compound 0.0316 µM, first compound 0.000949 µM) of 112%, a viability, T/C (second compound 0.0316 µM, first compound 0.003 µM) of 60.9% and a viability, T/C (second compound 0.0316 µM, first compound 0.00949 µM) of 4.41%. For the same compound, the viability, T/C (second compound 0.0316 µM, first compound 0.03 µM) was 2.07%, the viability, T/C (second compound 0.0316 µM, first compound 0.0949 µM) was 3.06% and the viability, T/C (second compound 0.0316 µM, first compound 0.3 µM) was 2.24%. For the same compound, the viability, T/C (second compound 0.1 µM, first compound 0.000949 µM) was 77.7%, the viability, T/C (second compound 0.1 µM, first compound 0.003 µM) was 27.6% and the viability, T/C (second compound 0.1 µM, first compound 0.00949 µM) was 3.68%. The viability, T/C (second compound 0.1 µM, first compound 0.03 µM) was 1.91%, the viability, T/C (second compound 0.1 µM, first compound 0.0949 µM) was 2.97% and the viability, T/C (second compound 0.1 µM, first compound 0.3 µM) was 2.4%. It also gave a viability, T/C (second compound 0.316 µM, first compound 0.000949 µM) of 52.8%, a viability, T/C (second compound 0.316 µM, first compound 0.003 µM) of 13.1% and a viability, T/C (second compound 0.316 µM, first compound 0.00949 µM) of 2.31%. The viability, T/C (second compound 0.316 µM, first compound 0.03 µM) was 2.27%, the viability, T/C (second compound 0.316 µM, first compound 0.0949 µM) was 1.45% and the viability, T/C (second compound 0.316 µM, first compound 0.3 µM) was 0.89%. The viability, T/C (second compound 1 µM, first compound 0.000949 µM) was 36.5%, the viability, T/C (second compound 1 µM, first compound 0.003 µM) was 3.94% and the viability, T/C (second compound 1 µM, first compound 0.00949 µM) was 2.3%. The viability, T/C (second compound 1 µM, first compound 0.03 µM) was 2.6%, the viability, T/C (second compound 1 µM, first compound 0.0949 µM) was 4.22% and the viability, T/C (second compound 1 µM, first compound 0.3 µM) was 2.48%. For the same compound, the viability, T/C (second compound 3.16 µM, first compound 0.000949 µM) was 33.3%, the viability, T/C (second compound 3.16 µM, first compound 0.003 µM) was 2.4% and the viability, T/C (second compound 3.16 µM, first compound 0.00949 µM) was 0.9%. For the same compound, the viability, T/C (second compound 3.16 µM, first compound 0.03 µM) was 2.14%, the viability, T/C (second compound 3.16 µM, first compound 0.0949 µM) was 2.81% and the viability, T/C (second compound 3.16 µM, first compound 0.3 µM) was 0.81%. It also gave a viability, T/C (second compound 10 µM, first compound 0.000949 µM) of 40.4%, a viability, T/C (second compound 10 µM, first compound 0.003 µM) of 2.71% and a viability, T/C (second compound 10 µM, first compound 0.00949 µM) of 1.47%. For the same compound, the viability, T/C (second compound 10 µM, first compound 0.03 µM) was 4.33%, the viability, T/C (second compound 10 µM, first compound 0.0949 µM) was 2.67% and the viability, T/C (second compound 10 µM, first compound 0.3 µM) was 1.5%.
Compound `Cn1ncnc1[C@H]1c2n[nH]c(=O)c3cc(F)cc(c23)N[C@@H]1c1ccc(F)cc1` + CNC(=O)c1ccc(Nc2nc(OC3CCCC3)c3c(-c4ccc5nc(C)oc5c4)c[nH]c3n2)c(OC)c1 has an IC50 (second compound 0.0316 µM) greater than 100 nM, an IC50 (second compound 0.1 µM) greater than 100 nM and an IC50 (second compound 0.316 µM) of less than 0.316 nM. It also gave an IC50 (second compound 1 µM) of less than 0.316 nM, an IC50 (second compound 3.16 µM) of less than 0.316 nM and an IC50 (second compound 10 µM) of less than 0.316 nM. For the same compound, the viability, T/C (second compound 0.0316 µM, first compound 0.000316 µM) was 94.7%, the viability, T/C (second compound 0.0316 µM, first compound 0.001 µM) was 103% and the viability, T/C (second compound 0.0316 µM, first compound 0.00316 µM) was 107%. For the same compound, the viability, T/C (second compound 0.0316 µM, first compound 0.01 µM) was 105%, the viability, T/C [1] was 107% and the viability, T/C [2] was 113%. The viability, T/C (second compound 0.1 µM, first compound 0.000316 µM) was 63.8%, the viability, T/C (second compound 0.1 µM, first compound 0.001 µM) was 61.7% and the viability, T/C (second compound 0.1 µM, first compound 0.00316 µM) was 66.6%. The viability, T/C (second compound 0.1 µM, first compound 0.01 µM) was 62.3%, the viability, T/C [3] was 69.9% and the viability, T/C [4] was 68.5%. For the same compound, the viability, T/C (second compound 0.316 µM, first compound 0.000316 µM) was 36.9%, the viability, T/C (second compound 0.316 µM, first compound 0.001 µM) was 42.5% and the viability, T/C (second compound 0.316 µM, first compound 0.00316 µM) was 46.3%. For the same compound, the viability, T/C (second compound 0.316 µM, first compound 0.01 µM) was 46.2%, the viability, T/C [5] was 49.4% and the viability, T/C [6] was 48.6%. For the same compound, the viability, T/C (second compound 1 µM, first compound 0.000316 µM) was 27%, the viability, T/C (second compound 1 µM, first compound 0.001 µM) was 31.4% and the viability, T/C (second compound 1 µM, first compound 0.00316 µM) was 31.4%. It also gave a viability, T/C (second compound 1 µM, first compound 0.01 µM) of 33.2%, a viability, T/C [7] of 40% and a viability, T/C [8] of 30.2%. The viability, T/C (second compound 3.16 µM, first compound 0.000316 µM) was 27.1%, the viability, T/C (second compound 3.16 µM, first compound 0.001 µM) was 27.8% and the viability, T/C (second compound 3.16 µM, first compound 0.00316 µM) was 31.1%. It also gave a viability, T/C (second compound 3.16 µM, first compound 0.01 µM) of 30.9%, a viability, T/C [9] of 33% and a viability, T/C [10] of 30.7%. The viability, T/C (second compound 10 µM, first compound 0.000316 µM) was 30.3%, the viability, T/C (second compound 10 µM, first compound 0.001 µM) was 29.3% and the viability, T/C (second compound 10 µM, first compound 0.00316 µM) was 31.9%. The viability, T/C (second compound 10 µM, first compound 0.01 µM) was 30.9%, the viability, T/C [11] was 36.2% and the viability, T/C [12] was 32.3%.
For `O=C(c1cc(Cc2n[nH]c(=O)c3ccccc23)ccc1F)N1CCN(C(=O)C2CC2)CC1` + CNC(=O)c1ccc(Nc2nc(OC3CCCC3)c3c(-c4ccc5nc(C)oc5c4)c[nH]c3n2)c(OC)c1, the IC50 (second compound 0.0316 µM) was greater than 10000 nM, the IC50 (second compound 0.1 µM) was greater than 10000 nM and the IC50 (second compound 0.316 µM) was greater than 10000 nM. The IC50 (second compound 1 µM) was less than 31.6 nM, the IC50 (second compound 3.16 µM) was less than 31.6 nM and the IC50 (second compound 10 µM) was less than 31.6 nM. The viability, T/C [1] was 129%, the viability, T/C [2] was 119% and the viability, T/C (second compound 0.0316 µM, first compound 0.316 µM) was 113%. The viability, T/C (second compound 0.0316 µM, first compound 1 µM) was 109%, the viability, T/C (second compound 0.0316 µM, first compound 3.16 µM) was 115% and the viability, T/C (second compound 0.0316 µM, first compound 10 µM) was 120%. The viability, T/C [3] was 88.7%, the viability, T/C [4] was 81.7% and the viability, T/C (second compound 0.1 µM, first compound 0.316 µM) was 88.3%. The viability, T/C (second compound 0.1 µM, first compound 1 µM) was 81.2%, the viability, T/C (second compound 0.1 µM, first compound 3.16 µM) was 83.1% and the viability, T/C (second compound 0.1 µM, first compound 10 µM) was 84.1%. It also gave a viability, T/C [5] of 55.8%, a viability, T/C [6] of 52.3% and a viability, T/C (second compound 0.316 µM, first compound 0.316 µM) of 55.4%. It also gave a viability, T/C (second compound 0.316 µM, first compound 1 µM) of 56.7%, a viability, T/C (second compound 0.316 µM, first compound 3.16 µM) of 57.3% and a viability, T/C (second compound 0.316 µM, first compound 10 µM) of 57.6%. The viability, T/C [7] was 39.5%, the viability, T/C [8] was 39.7% and the viability, T/C (second compound 1 µM, first compound 0.316 µM) was 41.7%. It also gave a viability, T/C (second compound 1 µM, first compound 1 µM) of 37.7%, a viability, T/C (second compound 1 µM, first compound 3.16 µM) of 41.8% and a viability, T/C (second compound 1 µM, first compound 10 µM) of 43.9%. It also gave a viability, T/C [9] of 36.8%, a viability, T/C [10] of 36.6% and a viability, T/C (second compound 3.16 µM, first compound 0.316 µM) of 34.9%. The viability, T/C (second compound 3.16 µM, first compound 1 µM) was 36.7%, the viability, T/C (second compound 3.16 µM, first compound 3.16 µM) was 38.1% and the viability, T/C (second compound 3.16 µM, first compound 10 µM) was 39.6%. For the same compound, the viability, T/C [11] was 37.7%, the viability, T/C [12] was 37.5% and the viability, T/C (second compound 10 µM, first compound 0.316 µM) was 37.9%. The viability, T/C (second compound 10 µM, first compound 1 µM) was 36.5%, the viability, T/C (second compound 10 µM, first compound 3.16 µM) was 39.9% and the viability, T/C (second compound 10 µM, first compound 10 µM) was 35.5%.
